Reference: BindingDB's records for doi:10.1021/jm900036m (The University of Newcastle, 2009)

test: Inhibition of dynamin 1-mediated endocytosis internalization of Tf-A594 in human U2OS cells pretreated for 30 mins

Row | SMILES | IC50 [µM]
1 | CCCCCCCCNC(=O)/C(C#N)=C/c1c(C)n(CCN(C)C)c2ccccc12 [2-Cyano-N-octyl-3-[1-(2-dimethylaminoethyl)-2-methyl-1Hindol-3-yl]-acyrlamide] | 13.2
2 | CCCCCCCCNC(=O)/C(C#N)=C/c1c(C)n(CCCN(C)C)c2ccccc12 [2-Cyano-N-octyl-3-[1-(3-dimethylaminopropyl)-2-methyl-1Hindol-3-yl]-acrylamide] | 10.8
3 | CCCCCCCCCCNC(=O)/C(C#N)=C/c1c(C)n(CCN(C)C)c2ccccc12 [2-Cyano-N-decyl-3-[1-(2-dimethylaminoethyl)-2-methyl-1Hindol-3-yl]-acrylamide] | 58.2
4 | CCCCCCNC(=O)/C(C#N)=C/c1c(C)n(CCCN(C)C)c2ccccc12 [2-Cyano-N-hexyl-3-[1-(3-dimethylaminopropyl)-2-methyl-1Hindol-3-yl]-acrylamide] | 14.3
5 | CCCCCCCCNC(=O)/C(C#N)=C/c1cn(CCCN(C)C)c2ccccc12 [2-Cyano-N-octyl-3-(1-(3-dimethylaminopropyl)-1H-indol-3-yl)-acrylamide] | 5
